Columns and labels:
Type in all cases: in vivo, human
[1] = Serum glucose concentration, post-prandial cross-over study
Protocol: (§1) The design was a randomized, double blind, placebo controlled, crossover study (FIG. 1). Participants were randomized to receive 20 mg of oleuropein or 20 mg of placebo immediately before a lunch. The randomization was carried out by a procedure based on a random numeric sequence. Placebo and active capsules were identical in appearance and both were odourless. The quality control on both capsules was performed confirming their safety. None of the participants were receiving any vitamin or antioxidant supplements, statin or antiplatelet drugs in the month preceding the beginning of the study. Others exclusion criteria were: i) presence of malignancy, ii) presence of chronic inflammatory diseases, iii) alcohol intake, iv) smoking, v) pregnant or breast-feeding, vi) age less than 18 years. […] Participants were assessed at baseline (T0) and two hours after lunch (T120). Glycaemic profile, which included glucose, insulin, dipeptidyl-peptidase-4 (DPP-4) activity and glucagon-like peptide-(GLP-1) and oxidative stress, which included sNox2-dp, 8-iso-PGF2α and platelet p47phox phosphorylation, were analysed before and two hours after meal. […]
(§2) Glucose and insulin were measured in serum samples using ELISA commercial Kit (Arbor Assay and DRG International, respectively). Glucose values were expressed as mg/dl whereas insulin values were expressed as μIU/ml.

8-iso-PGF2α = experiment: Serum isoprostanes (8-iso-PGF2α-III) enzyme immunoassay, post-prandial cross-over study; conditions: healthy subjects (n=20), 20 mg immediately before lunch, T120 vs T0
Protocol: as §1
Serum isoprostanes (8-iso-PGF2α-III) were measured by the enzyme immunoassay method (DRG International) and expressed as pmol/L. Intra-assay and inter-assay coefficients of variation were <10%.

Nox2 = experiment: Serum Nox2 measured as soluble Nox2-derived peptide (sNox2dp) by ELISA, post-prandial cross-over study; conditions: healthy subjects (n=20), 20 mg immediately before lunch, T120 (2 h after meal) vs T0
Protocol: as §1, with “study.” for “study. Others exclusion criteria were: i) presence of malignancy, ii) presence of chronic inflammatory diseases, iii) alcohol intake, iv) smoking, v) pregnant or breast-feeding, vi) age less than 18 years.”
Serum Nox2 was measured as soluble Nox2-derived peptide (sNOX2dp) with an ELISA method, which was partly modified in comparison to that previously reported (Pignatelli et al., 2010; WO 2010142794 A1). […]
4) quantification of immobilized antibody enzyme conjugates by monitoring HRP activities in the presence of the substrate 3,3′,5,5′-tetramethylbenzidine (TMB). […] Values were expressed as pg/ml; intra-assay and inter-assay coefficients of variation were <10%.

DPP-4 = experiment: Serum dipeptidyl peptidase-4 (DPP-4) activity, post-prandial cross-over study; conditions: healthy subjects (n=20), 20 mg immediately before lunch, T120 vs T0
Protocol: as §1
DDP4 activity was evaluated in serum samples by a commercial assay (Sigma Aldrich). […] DDP4 activity was expressed as μU/ml, where one unit of DPP4 is the amount of enzyme that will hydrolyze the DPP4 substrate to yield 1.0 μmole of AMC per minute at 37° C.

GLP1 = experiment: Serum glucagon like peptide-1 (GLP1) concentration, post-prandial cross-over study; conditions: healthy subjects (n=20), 20 mg immediately before lunch, T120 vs T0
Protocol: as §1
Commercial ELISA Kit (DRG International) was used for the quantitative determination of bioactive GLP1 (7-36) and (9-36) levels in serum. GLP1 values are expressed as pmol/L.

p47phox = experiment: Western blot analysis of platelet p47phox phosphorylation, post-prandial cross-over study; conditions: healthy subjects (n=5), 20 mg immediately before lunch, T120 vs T0
Protocol: as §1, with “study.” for “study. Others exclusion criteria were: i) presence of malignancy, ii) presence of chronic inflammatory diseases, iii) alcohol intake, iv) smoking, v) pregnant or breast-feeding, vi) age less than 18 years.”
p47^phox phosphorylation was analysed in platelets prepared as previously described [13 Carnevale et al., 2014 a)]. […] Then, the membranes were incubated with goat anti-rabbit secondary antibody (Santa Cruz Biotechnology—Product Code sc2004, 1:5000) or with goat anti-mouse secondary antibody (Santa Cruz Biotechnology—Product Code sc2005, 1:5000) and then the immune complexes were detected by enhanced chemiluminescence substrate. […]

insulin = experiment: Serum insulin concentration, post-prandial cross-over study; conditions: healthy subjects (n=20), 20 mg immediately before lunch, T120 vs T0
Protocol: as §1, §2

C/C=C1/[C@H](O[C@@H]2O[C@H](CO)[C@@H](O)[C@H](O)[C@H]2O)OC=C(C(=O)OC)[C@H]1CC(=O)OCCc1ccc(O)c(O)c1 [oleuropein]
blood glucose, Δ change compared to baseline ([1]; healthy subjects (n=20), 20 mg immediately before lunch, T120 vs T0): 2%
average reduction of glucose ([1]; healthy subjects, 20 mg versus placebo, post-prandial): 14 mg/dL
8-iso-PGF2α, Δ change compared to baseline (8-iso-PGF2α): 8%
sNox2-dp, Δ change compared to baseline (Nox2): 25%
DPP-4 activity, Δ change compared to baseline (DPP-4): 35%
GLP1, Δ change compared to baseline (GLP1): 19%
platelet p47phox phosphorylation, Δ change compared to baseline (p47phox): 42%
blood insulin, Δ change compared to baseline (insulin): 116%

— patent publication US20210169910A1, “OLEUROPEIN FOR USE IN REDUCING POST-PRANDIAL GLYCAEMIA” (Università degli Studi di Roma "La Sapienza", priority 2017, published 2021)
